Results from patent publication US10633337B2, “Crystal forms of a 9-aminomethyl substituted tetracycline compound and a preparation method thereof” (KBP Biosciences Co., Ltd., priority 2016, dated 2020).

Columns and labels:
Type in all cases: physicochemical
[1] = Assay 1: stability (influencing factor tests: high temperature, high humidity, illumination) of amorphous form and crystal forms I, II, VII; content and purity by HPLC; details: for stability (conclusion in words): high temperature, high humidity and illumination
Description: Assay 1: Stability for Amorphous Form and Crystal Forms of the Present Compound
Tested sample: amorphous form, crystal form I, crystal form II, and crystal form VII of the compound represented by formula (1) were prepared according to Examples;
(§1) Test Conditions for Investigating the Influencing Factors:
(§2) High temperature tests: amorphous form, crystal form I, crystal form II, and crystal form VII of the compound represented by formula (1) were laid on a dry and clean watch glass, and kept at 60° C.±5° C. for 14 days. Samples were taken respectively on Day 7 and Day 14. The content and the purity of the compound represented by formula (1) were measured, and compared with those of the sample taken on Day 0.
as §2, with “humidity test:” for “temperature tests:”, “25° C.±2° C., RH75%±5%, 40° C.±2° C., RH75%±5%” for “60° C.±5° C.”
as §2, with “Illumination test:” for “High temperature tests:”, “an illuminance of 4500 Lx±500 Lx in an illumination box” for “60° C.±5° C.”
(§3) Content: it was measured by using an external standard method in accordance with the High Performance Liquid Chromatography in Chinese Pharmacopoeia, Appendix V D, Edition 2010.
(§4) Purity: it was measured by using an area normalization method in accordance with the High Performance Liquid Chromatography in Chinese Pharmacopoeia, Appendix V D, Edition 2010.

[2] = Assay 2: stability (influencing factor tests) of crystal form II and crystal form IV; content by HPLC; details: for stability (conclusion in words): high temperature, high humidity and illumination
Description: Assay 2: Stability for Crystal Form II and Crystal Form IV of the Present Compound
Tested sample: crystal form II and crystal form IV of the compound represented by formula (1) were prepared according to Examples;
as §1
as §2, with “tests:” for “tests: amorphous form,”, “II” for “I, crystal form II,”, “IV” for “VII”, “15” for “14”, “5” for “7”, “15.” for “14.”
(§5) High humidity test: crystal form II and crystal form IV of the compound represented by formula (1) were laid on a dry and clean watch glass, and kept at 25° C.±2° C., RH92.5%±5%, 25° C.±2° C., RH75%±5%, 40° C.±2° C., RH75%±5% for 15 days. Samples were taken respectively on Day 5 and Day 15. The content and the purity of the compound represented by formula (1) were measured, and compared with those of the sample taken on Day 0.
as §5, with “Illumination” for “High humidity”, “an illuminance of 4500 Lx±500 Lx in an illumination box” for “25° C.±2° C., RH92.5%±5%, 25° C.±2° C., RH75%±5%, 40° C.±2° C., RH75%±5%”
as §3, §4

[3] = Investigation of the stability of crystal form III at high humidity
Description: It is also found in the study that not all of crystal forms I, II, III, IV, V, VI, VII and VIII of the compound represented by formula (1) have better stability than the amorphous form. Specifically, in the investigation of the stability of crystal form III, the content of the compound is reduced by about 10% after being placed in a high humidity condition of 40° C./75%±5% RH for 14 days.
The data for investigating the stability was mentioned as above.

[4] = Day 0 (start of stability test)
[5] = High temperature 60° C., Day 14
[6] = Illumination 45001x ± 5001x, Day 14

| SMILES | Content ([1]; 25° C./75% ± 5% RH, Day 7) [%] | Purity ([1]; 25° C./75% ± 5% RH, Day 7) [%] | Content ([1]; 25° C./75% ± 5% RH, Day 14) [%] | Purity ([1]; 25° C./75% ± 5% RH, Day 14) [%] | Content ([1]; 40° C./75% ± 5% RH, Day 7) [%] | Purity ([1]; 40° C./75% ± 5% RH, Day 7) [%] | Content ([1]; 40° C./75% ± 5% RH, Day 14) [%] | Purity ([1]; 40° C./75% ± 5% RH, Day 14) [%] | Content [1, 4] [%] | Purity [1, 4] [%] | Content ([1]; High temperature 60° C., Day 7) [%] | Purity ([1]; High temperature 60° C., Day 7) [%] | Content [1, 5] [%] | Purity [1, 5] [%] | Content [1, 6] [%] | Purity [1, 6] [%] | stability (conclusion in words) [1] | Content ([2]; 25° C./RH 75% ± 5%, Day 15) [%] | Content ([2]; 25° C./RH 92.5% ± 5%, Day 15) [%] | Content ([2]; 40° C./RH 75% ± 5%, Day 15) [%] | further results |
| --- | --- | --- | --- | --- | --- | --- | --- | --- | --- | --- | --- | --- | --- | --- | --- | --- | --- | --- | --- | --- | --- |
| CN(C)c1cc(CN2CC3CC3C2)c(O)c2c1C[C@H]1C[C@H]3[C@H](N(C)C)C(O)=C(C(N)=O)C(=O)[C@@]3(O)C(O)=C1C2=O (single isomer, unassigned) [Crystal form II] | 95.9 | 96.3 | 96.1 | 96.2 | 96.5 | 96.2 | 96.1 | 96.1 | 94.5 | 96.4 | 95.8 | 96.1 | 96.0 | 96.0 | 96.1 | 96.2 | relatively high stability | 98.3 | 96.7 | 98.0 | Content ([2]; 60° C., Day 15): 97.0%; Content ([2]; 4500 Lx ± 500 Lx, Day 15): 97.8%; Content [2, 4]: 98.4%; stability (conclusion in words) [2]: higher stability than crystal form IV |
| CN(C)c1cc(CN2CC3CC3C2)c(O)c2c1C[C@H]1C[C@H]3[C@H](N(C)C)C(O)=C(C(N)=O)C(=O)[C@@]3(O)C(O)=C1C2=O (single isomer, unassigned) [Crystal form IV] |  |  |  |  |  |  |  |  |  |  |  |  |  |  |  |  |  | 93.1 | 90.3 | 74.6 | Content ([2]; 60° C., Day 15): 88.6%; Content ([2]; 4500 Lx ± 500 Lx, Day 15): 74.6%; Content [2, 4]: 97.0%; reduction of content ([2]; high temperature of 60° C. for 15 days): about 10%; stability (conclusion in words) [2]: changed very much; reduction of content ([2]; illumination 4500 Lx±500 Lx for 15 days): 23.1%; stability compared with amorphous form ([2]; illumination condition or high temperature condition): worse stability than the amorphous form |
| CN(C)c1cc(CN2CC3CC3C2)c(O)c2c1C[C@H]1C[C@H]3[C@H](N(C)C)C(O)=C(C(N)=O)C(=O)[C@@]3(O)C(O)=C1C2=O (stereo partly drawn) [Amorphous form, (4S,4aS,5aR,12aS)-9-(3-azabicyclo[3.1.0]hexan-3-ylmethyl)-4,7-bis(dimethylamino)-3,10,12,12a-tetrahydroxy-1,11-dioxo-1,4,4a,5,5a,6,11,12a-octahydrotetracene-2-carboxamide] | 98.7 | 97.1 | 93.3 | 96.7 | 94.7 | 94.9 | 89.6 | 92.9 | 97.1 | 98.0 | 94.5 | 95.8 | 90.5 | 94.3 | 85.0 | 92.9 | unstable |  |  |  | reduction of content ([1]; after 14 days at a high temperature of 60° C.): 6.6%; reduction of content ([1]; after 14 days at high humidity 40° C./75%±5% RH): 7.5%; reduction of content ([1]; after 14 days under illumination of 4500 lx±500 lx): 12.1% |
| CN(C)c1cc(CN2CC3CC3C2)c(O)c2c1C[C@H]1C[C@H]3[C@H](N(C)C)C(O)=C(C(N)=O)C(=O)[C@@]3(O)C(O)=C1C2=O (stereo partly drawn) [Crystal form I, (4S,4aS,5aR,12aS)-9-(3-azabicyclo[3.1.0]hexan-3-ylmethyl)-4,7-bis(dimethylamino)-3,10,12,12a-tetrahydroxy-1,11-dioxo-1,4,4a,5,5a,6,11,12a-octahydrotetracene-2-carboxamide] | 97.2 | 98.1 | 98.2 | 98.1 | 97.4 | 98.0 | 97.5 | 97.8 | 97.0 | 98.2 | 97.7 | 97.9 | 97.3 | 97.7 | 97.8 | 98.1 | relatively high stability |  |  |  |  |
| CN(C)c1cc(CN2CC3CC3C2)c(O)c2c1C[C@H]1C[C@H]3[C@H](N(C)C)C(O)=C(C(N)=O)C(=O)[C@@]3(O)C(O)=C1C2=O (stereo partly drawn) [Crystal form III, (4S,4aS,5aR,12aS)-9-(3-azabicyclo[3.1.0]hexan-3-ylmethyl)-4,7-bis(dimethylamino)-3,10,12,12a-tetrahydroxy-1,11-dioxo-1,4,4a,5,5a,6,11,12a-octahydrotetracene-2-carboxamide] |  |  |  |  |  |  |  |  |  |  |  |  |  |  |  |  |  |  |  |  | reduction of content ([3]; high humidity 40° C./75%±5% RH for 14 days): about 10%; stability compared with amorphous form ([3]; high humidity condition): worse stability than the amorphous form |
| CN(C)c1cc(CN2CC3CC3C2)c(O)c2c1C[C@H]1C[C@H]3[C@H](N(C)C)C(O)=C(C(N)=O)C(=O)[C@@]3(O)C(O)=C1C2=O (stereo partly drawn) [Crystal form VII, (4S,4aS,5aR,12aS)-9-(3-azabicyclo[3.1.0]hexan-3-ylmethyl)-4,7-bis(dimethylamino)-3,10,12,12a-tetrahydroxy-1,11-dioxo-1,4,4a,5,5a,6,11,12a-octahydrotetracene-2-carboxamide] | 96.1 | 97.1 | 95.8 | 97.2 | 94.6 | 96.4 | 94.5 | 95.7 | 95.8 | 97.4 | 95.2 | 96.8 | 93.6 | 96.2 | 95.7 | 96.6 | relatively high stability |  |  |  |  |
